Experimental data as given in PubChem BioAssay (NCI).
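Exposure lasted 48 hours, with cells grown in 96-well plates and compounds tested at five concentrations. GI50 marks 50% less growth. The concentration for full growth arrest is given as TGI.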

Key:
Assay in all cases: NCI-60 cell line screen, 48 h
CAKI-1 renal = tested on: CAKI-1 renal
SK-MEL-5 melanoma = tested on: SK-MEL-5 melanoma
COLO 205 colon = tested on: COLO 205 colon
SK-OV-3 ovarian = tested on: SK-OV-3 ovarian
HCT-116 colon = tested on: HCT-116 colon
MDA-MB-468 breast = tested on: MDA-MB-468 breast
RXF 393 renal = tested on: RXF 393 renal
U251 CNS = tested on: U251 CNS
SF-295 CNS = tested on: SF-295 CNS
T-47D breast = tested on: T-47D breast
KM12 colon = tested on: KM12 colon
SR leukemia = tested on: SR leukemia
DU-145 prostate = tested on: DU-145 prostate
OVCAR-8 ovarian = tested on: OVCAR-8 ovarian
MOLT-4 leukemia = tested on: MOLT-4 leukemia
LOX IMVI melanoma = tested on: LOX IMVI melanoma
786-0 renal = tested on: 786-0 renal
ACHN renal = tested on: ACHN renal
SN12C renal = tested on: SN12C renal
OVCAR-5 ovarian = tested on: OVCAR-5 ovarian
NCI-H226 lung = tested on: NCI-H226 lung
IGROV1 ovarian = tested on: IGROV1 ovarian
EKVX NSCLC = tested on: EKVX NSCLC
NCI-H460 lung = tested on: NCI-H460 lung
HOP-92 NSCLC = tested on: HOP-92 NSCLC
MDA-MB-435 = tested on: MDA-MB-435
HCT-15 colon = tested on: HCT-15 colon
MALME-3M melanoma = tested on: MALME-3M melanoma
SK-MEL-2 melanoma = tested on: SK-MEL-2 melanoma
OVCAR-3 ovarian = tested on: OVCAR-3 ovarian
SNB-19 CNS = tested on: SNB-19 CNS
K-562 leukemia = tested on: K-562 leukemia
SF-268 CNS = tested on: SF-268 CNS
HS 578T breast = tested on: HS 578T breast
HT29 colon = tested on: HT29 colon
MCF7 breast = tested on: MCF7 breast
UACC-62 melanoma = tested on: UACC-62 melanoma
NCI-H23 lung = tested on: NCI-H23 lung
NCI-H522 lung = tested on: NCI-H522 lung
UO-31 renal = tested on: UO-31 renal
HL-60(TB) leukemia = tested on: HL-60(TB) leukemia
BT-549 breast = tested on: BT-549 breast
RPMI-8226 leukemia = tested on: RPMI-8226 leukemia
UACC-257 melanoma = tested on: UACC-257 melanoma
PC-3 prostate = tested on: PC-3 prostate
A498 renal = tested on: A498 renal
SW-620 colon = tested on: SW-620 colon
SK-MEL-28 melanoma = tested on: SK-MEL-28 melanoma
M14 melanoma = tested on: M14 melanoma
SF-539 CNS = tested on: SF-539 CNS
TK-10 renal = tested on: TK-10 renal
A549 NSCLC = tested on: A549 NSCLC
OVCAR-4 ovarian = tested on: OVCAR-4 ovarian
HOP-62 NSCLC = tested on: HOP-62 NSCLC
CCRF-CEM leukemia = tested on: CCRF-CEM leukemia
MDA-MB-231 breast = tested on: MDA-MB-231 breast
HCC-2998 colon = tested on: HCC-2998 colon

**Q.** What does the source list for `Clc1ccccc1Nc1nnc(-c2c[nH]c3ccccc23)o1`?
**A.** GI50 (CAKI-1 renal): 0.647 µM; TGI (CAKI-1 renal): 33.2 µM; GI50 (SK-MEL-5 melanoma): 0.966 µM; TGI (SK-MEL-5 melanoma): 7.39 µM; GI50 (COLO 205 colon): 0.867 µM; TGI (COLO 205 colon): 11.7 µM; GI50 (SK-OV-3 ovarian): 3.68 µM; TGI (SK-OV-3 ovarian): 74.9 µM; GI50 (HCT-116 colon): 11.9 µM; TGI (HCT-116 colon): 77.6 µM; GI50 (MDA-MB-468 breast): 1.2 µM; TGI (MDA-MB-468 breast): 4.9 µM; GI50 (RXF 393 renal): 1.52 µM; TGI (RXF 393 renal): 11.1 µM; GI50 (U251 CNS): 0.505 µM; TGI (U251 CNS): 17.5 µM; GI50 (SF-295 CNS): 0.316 µM; TGI (SF-295 CNS): 10.2 µM; GI50 (T-47D breast): 4.1 µM; TGI (T-47D breast): > 100 µM; GI50 (KM12 colon): 1.57 µM; TGI (KM12 colon): 28.7 µM; GI50 (SR leukemia): 0.387 µM; TGI (SR leukemia): > 100 µM; GI50 (DU-145 prostate): 2.78 µM; TGI (DU-145 prostate): 56.9 µM; GI50 (OVCAR-8 ovarian): 1.6 µM; TGI (OVCAR-8 ovarian): 18.1 µM; GI50 (MOLT-4 leukemia): 0.654 µM; TGI (MOLT-4 leukemia): 23.2 µM; GI50 (LOX IMVI melanoma): 0.618 µM; TGI (LOX IMVI melanoma): 19.8 µM; GI50 (786-0 renal): 9.52 µM; TGI (786-0 renal): 28.1 µM; GI50 (ACHN renal): 1.49 µM; TGI (ACHN renal): 37.5 µM; GI50 (SN12C renal): 0.93 µM; TGI (SN12C renal): 21.7 µM; GI50 (OVCAR-5 ovarian): 4.33 µM; TGI (OVCAR-5 ovarian): 31.9 µM; GI50 (NCI-H226 lung): 5.39 µM; TGI (NCI-H226 lung): > 100 µM; GI50 (IGROV1 ovarian): 0.429 µM; TGI (IGROV1 ovarian): 33.5 µM; GI50 (EKVX NSCLC): 3.05 µM; TGI (EKVX NSCLC): 77.7 µM; GI50 (NCI-H460 lung): 0.787 µM; TGI (NCI-H460 lung): 15.2 µM; GI50 (HOP-92 NSCLC): 11.5 µM; TGI (HOP-92 NSCLC): 54.6 µM; GI50 (MDA-MB-435): 0.233 µM; TGI (MDA-MB-435): 0.778 µM; GI50 (HCT-15 colon): 0.35 µM; TGI (HCT-15 colon): 23.9 µM; GI50 (MALME-3M melanoma): 0.498 µM; TGI (MALME-3M melanoma): 20.1 µM; GI50 (SK-MEL-2 melanoma): 0.318 µM; TGI (SK-MEL-2 melanoma): 1.06 µM; GI50 (OVCAR-3 ovarian): 0.43 µM; TGI (OVCAR-3 ovarian): 15 µM; GI50 (SNB-19 CNS): 0.721 µM; TGI (SNB-19 CNS): 31.5 µM; GI50 (K-562 leukemia): 0.308 µM; TGI (K-562 leukemia): > 100 µM; GI50 (SF-268 CNS): 6.89 µM; TGI (SF-268 CNS): 51.7 µM; GI50 (HS 578T breast): 1.52 µM; TGI (HS 578T breast): 20.6 µM; GI50 (HT29 colon): 0.353 µM; TGI (HT29 colon): 10.3 µM; GI50 (MCF7 breast): 0.583 µM; TGI (MCF7 breast): 21.6 µM; GI50 (UACC-62 melanoma): 0.402 µM; TGI (UACC-62 melanoma): 17.1 µM; GI50 (NCI-H23 lung): 2 µM; TGI (NCI-H23 lung): 17.1 µM; GI50 (NCI-H522 lung): 0.305 µM; TGI (NCI-H522 lung): 2.38 µM; GI50 (UO-31 renal): 1.82 µM; TGI (UO-31 renal): 49.7 µM; GI50 (HL-60(TB) leukemia): 0.321 µM; TGI (HL-60(TB) leukemia): 4.56 µM; GI50 (BT-549 breast): 2.27 µM; TGI (BT-549 breast): 34.6 µM; GI50 (RPMI-8226 leukemia): 1.31 µM; TGI (RPMI-8226 leukemia): > 100 µM; GI50 (UACC-257 melanoma): 14.1 µM; TGI (UACC-257 melanoma): 88.7 µM; GI50 (PC-3 prostate): 1.9 µM; TGI (PC-3 prostate): 57.6 µM; GI50 (A498 renal): 18.8 µM; TGI (A498 renal): 50.8 µM; GI50 (SW-620 colon): 0.479 µM; TGI (SW-620 colon): 29.1 µM; GI50 (SK-MEL-28 melanoma): 10.4 µM; TGI (SK-MEL-28 melanoma): 27.3 µM; GI50 (M14 melanoma): 0.71 µM; TGI (M14 melanoma): 20.2 µM; GI50 (SF-539 CNS): 0.708 µM; TGI (SF-539 CNS): 3.24 µM; GI50 (TK-10 renal): 8.09 µM; TGI (TK-10 renal): > 100 µM; GI50 (A549 NSCLC): 1.73 µM; TGI (A549 NSCLC): > 100 µM; GI50 (OVCAR-4 ovarian): 22.7 µM; TGI (OVCAR-4 ovarian): > 100 µM; GI50 (HOP-62 NSCLC): 4.58 µM; TGI (HOP-62 NSCLC): 63.5 µM; GI50 (CCRF-CEM leukemia): 0.501 µM; TGI (CCRF-CEM leukemia): 26.5 µM; GI50 (MDA-MB-231 breast): 2.18 µM; TGI (MDA-MB-231 breast): 23.5 µM; GI50 (HCC-2998 colon): 1.85 µM; TGI (HCC-2998 colon): 14.2 µM
